Data as given in US5843999A, “2-phenylazulene derivatives and a manufacturing method of these compounds” (Kotobuki Seiyaku Co., Ltd., priority 1996, dated 1998).

Legend:
[1] = target: COX-1 (Homo sapiens, UniProt P23219); assay: Inhibitory activity on COX-1 (PGE2 production from arachidonic acid, PGE2 ELISA; Needleman method); type: biochemical; settings: 1 mM arachidonic acid, 1 μM hematin, pH 8.0, 37° C., 10 min
Procedure: (§1) Pharmacological experiment are as follows. Inhibitory activity of compounds on COX-1 and COX-2 were assayed according to the method of Needleman (J. Biol. Chem., 254, 9772, 1979). One unit of COX-1 or COX-2 enzyme, suspended with Tris-HCl buffer (pH 8.0, 500 μl) containing 1 μM hematin as co-factor, was incubated with compound and 1 mM arachidonic acid at 37° C. for 10 min. The reaction was stopped with 50 mM indomethacin (50 μl), and amounts of PGE2 in the reaction mixture was assayed using PGE2 ELISA system.

[2] = target: T1, COX-2 (Homo sapiens, UniProt P35354); assay: Inhibitory activity on COX-2 (PGE2 production from arachidonic acid, PGE2 ELISA; Needleman method); type: biochemical; settings: 1 mM arachidonic acid, 1 μM hematin, pH 8.0, 37° C., 10 min
T1 sequence (P35354 18-604): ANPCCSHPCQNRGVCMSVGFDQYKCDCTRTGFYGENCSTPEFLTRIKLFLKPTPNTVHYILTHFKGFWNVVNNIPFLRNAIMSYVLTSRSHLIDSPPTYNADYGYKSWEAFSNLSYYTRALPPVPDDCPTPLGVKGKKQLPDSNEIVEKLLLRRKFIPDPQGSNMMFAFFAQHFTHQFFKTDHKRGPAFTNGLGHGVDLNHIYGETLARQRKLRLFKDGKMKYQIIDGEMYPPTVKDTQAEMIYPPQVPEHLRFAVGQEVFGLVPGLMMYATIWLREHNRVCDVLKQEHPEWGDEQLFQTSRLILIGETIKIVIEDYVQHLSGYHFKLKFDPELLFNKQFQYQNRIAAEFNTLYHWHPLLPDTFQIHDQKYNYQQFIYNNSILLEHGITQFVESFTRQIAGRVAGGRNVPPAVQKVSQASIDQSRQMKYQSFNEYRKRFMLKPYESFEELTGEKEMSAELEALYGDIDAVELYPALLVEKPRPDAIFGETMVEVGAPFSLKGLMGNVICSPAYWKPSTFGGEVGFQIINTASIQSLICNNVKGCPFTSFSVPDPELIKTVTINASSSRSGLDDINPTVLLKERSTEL
Procedure: as §1

Chain of COX-1 (P23219 24-599): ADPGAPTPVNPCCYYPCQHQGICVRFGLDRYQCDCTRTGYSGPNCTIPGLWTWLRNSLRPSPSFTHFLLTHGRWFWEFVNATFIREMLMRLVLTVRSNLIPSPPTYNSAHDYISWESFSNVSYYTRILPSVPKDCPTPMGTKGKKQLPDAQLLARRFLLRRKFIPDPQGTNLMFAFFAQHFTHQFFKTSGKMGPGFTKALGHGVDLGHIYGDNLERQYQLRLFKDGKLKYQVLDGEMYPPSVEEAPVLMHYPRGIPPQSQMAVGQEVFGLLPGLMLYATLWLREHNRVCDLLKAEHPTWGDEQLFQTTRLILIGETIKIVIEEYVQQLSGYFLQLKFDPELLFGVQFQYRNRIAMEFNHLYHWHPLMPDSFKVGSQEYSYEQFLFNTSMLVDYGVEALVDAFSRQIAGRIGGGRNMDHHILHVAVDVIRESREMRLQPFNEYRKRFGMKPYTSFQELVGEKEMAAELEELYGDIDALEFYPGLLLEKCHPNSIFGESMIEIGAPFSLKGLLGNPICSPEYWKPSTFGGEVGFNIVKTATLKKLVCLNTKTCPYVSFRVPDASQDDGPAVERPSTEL

IC50 [1] | IC50 [2] | SMILES
> 10 µM | 0.76 µM | CS(=O)(=O)c1ccc(-c2cc3cccccc-3c2-c2ccccc2)cc1 [Compound 1, 2-(4-Methylsulfonylphenyl)-1-phenylazulene]
> 10 µM | 0.03 µM | CS(=O)(=O)c1ccc(-c2cc3cccccc-3c2-c2ccc(Cl)cc2)cc1 [Compound 4, 1-(4-Chlorophenyl)-2-(4-methylsulfonylphenyl)azulene]
> 10 µM | 1.2 µM | CS(=O)(=O)c1ccc(-c2cc3cccccc-3c2-c2ccc(F)cc2)cc1 [Compound 6, 1-(4-Fluorophenyl)-2-(4-methylsulfonylphenyl)azulene]
> 10 µM | 0.048 µM | Cc1cccc(-c2c3cccccc-3cc2-c2ccc(S(C)(=O)=O)cc2)c1 [Compound 7, 1-(3-Methylphenyl)-2-(4-methylsulfonylphenyl)azulene]
> 10 µM | 7.4 µM | Cc1ccc(-c2c3cccccc-3cc2-c2ccc(S(C)(=O)=O)cc2)cc1 [Compound 8, 1-(4-Methylphenyl)-2-(4-methylsulfonylphenyl)azulene]
> 10 µM | 4.8 µM | COc1cccc(-c2c3cccccc-3cc2-c2ccc(S(C)(=O)=O)cc2)c1 [Compound 9, 1-(3-Methoxyphenyl)-2-(4-methylsulfonylphenyl)azulene]
> 10 µM | 3.7 µM | COc1ccc(-c2c3cccccc-3cc2-c2ccc(S(C)(=O)=O)cc2)cc1 [Compound 10, 1-(4-Methoxyphenyl)-2-(4-methylsulfonylphenyl)azulene]
> 10 µM | 0.0049 µM | Cc1ccc(-c2c3cccccc-3cc2-c2ccc(S(C)(=O)=O)cc2)cc1Cl [Compound 12, 1-(3-Chloro-4-methylphenyl)-2-(4-methylsulfonylphenyl)azulene]
> 10 µM | 0.019 µM | COc1ccc(-c2c3cccccc-3cc2-c2ccc(S(C)(=O)=O)cc2)cc1Cl [Compound 13, 1-(3-Chloro4-methoxyphenyl)-2-(4-methylsulfonylphenyl)azulene]
> 10 µM | 0.0084 µM | COc1ccc(-c2c3cccccc-3cc2-c2ccc(S(C)(=O)=O)cc2)cc1F [Compound 14, 1-(3-Fluoro-4-methoxyphenyl)-2-(4-methylsulfonylphenyl)azulene]
> 10 µM | 0.064 µM | COc1ccc(-c2c3cccccc-3cc2-c2ccc(S(C)(=O)=O)cc2)cc1OC [Compound 38, 1-(3,4-Dimethoxyphenyl)-2-(4-methylsulfonylphenyl)azulene]

Continued, molecule first:

SMILES | IC50 [1] | IC50 [2]
CS(=O)(=O)c1ccc(-c2cc3cccccc-3c2-c2ccccc2Cl)cc1 [Compound 2, 1-(2-Chlorophenyl)-2-(4-methylsulfonylphenyl)azulene] | > 10 µM | 6.9 µM
CS(=O)(=O)c1ccc(-c2cc3cccccc-3c2-c2cccc(Cl)c2)cc1 [Compound 3, 1-(3-Chlorophenyl)-2-(4-methylsulfonylphenyl)azulene] | > 10 µM | 0.0093 µM
CS(=O)(=O)c1ccc(-c2cc3cccccc-3c2-c2cccc(F)c2)cc1 [Compound 5, 1-(3-Fluorophenyl)-2-(4-methylsulfonylphenyl)azulene] | > 10 µM | > 10 µM
CS(=O)(=O)c1ccc(-c2cc3cccccc-3c2-c2ccc(F)c(Cl)c2)cc1 [Compound 11, 1-(3-Chloro-4-fluorophenyl)-2-(4-methylsulfonylphenyl)azulene] | > 10 µM | 0.083 µM
CS(=O)(=O)c1ccc(-c2c(F)c3cccccc-3c2-c2ccccc2)cc1 [Compound 21, 1-Fluoro-2-(4-methylsulfonylphenyl)-3-phenylazulene] | > 10 µM | 7.9 µM
NS(=O)(=O)c1ccc(-c2cc3cccccc-3c2-c2ccccc2)cc1 [Compound 27, 4-(1-Phenylazulene-2-yl)phenylsulfonamide] | > 10 µM | 0.0086 µM
NS(=O)(=O)c1ccc(-c2cc3cccccc-3c2-c2cccc(Cl)c2)cc1 [Compound 28, 4-[1-(3-Chlorophenyl)azulene-2-yl]phenylsulfonamide] | 7.6 µM | 2.6 µM
NS(=O)(=O)c1ccc(-c2cc3cccccc-3c2-c2cccc(F)c2)cc1 [Compound 29, 4-[1-(3-Fluorophenyl)azulene-2-yl]phenylsulfonamide] | 4.7 µM | 0.77 µM
Cc1cccc(-c2c3cccccc-3cc2-c2ccc(S(N)(=O)=O)cc2)c1 [Compound 30, 4-[1-(3-Methylphenyl)azulene-2-yl]phenylsulfonamide] | 4.3 µM | 0.5 µM
COc1cccc(-c2c3cccccc-3cc2-c2ccc(S(N)(=O)=O)cc2)c1 [Compound 31, 4-[1-(3-Methoxyphenyl)azulene-2-yl]phenylsulfonamide] | > 10 µM | 2.5 µM
NS(=O)(=O)c1ccc(-c2cc3cccccc-3c2-c2ccc(F)c(Cl)c2)cc1 [Compound 32, 4-[1-(3-Chloro-4-fluorophenyl)azulene-2-yl]phenylsulfonamide] | > 10 µM | 0.012 µM
Cc1ccc(-c2c3cccccc-3cc2-c2ccc(S(N)(=O)=O)cc2)cc1Cl [Compound 33, 4-[1-(3-Chloro4-methylphenyl)azulene-2-yl]phenylsulfonamide] | 4.1 µM | 0.0026 µM
COc1ccc(-c2c3cccccc-3cc2-c2ccc(S(N)(=O)=O)cc2)cc1Cl [Compound 34, 4-[1-(3-Chloro4-methoxyphenyl)azulene-2-yl]phenylsulfonamide] | 0.96 µM | 0.0034 µM
COc1ccc(-c2c3cccccc-3cc2-c2ccc(S(N)(=O)=O)cc2)cc1F [Compound 35, 4-[l-(3-Fluoro-4-methoxyphenyl)azulene-2-yl]phenylsulfonamide] | 6.7 µM | 0.022 µM
COc1ccc(-c2c3cccccc-3cc2-c2ccc(S(N)(=O)=O)cc2)cc1OC [Compound 39, 4-[1-(3,4-Dimethoxyphenyl)azulene-2-yl]phenylsulfonamide] | > 10 µM | 0.29 µM
